As usually defined, the IC90 is the concentration needed for an effect of 90%.

These results are taken from patent US20070015733A1, “Aryl Phosphate Derivatives of d4T having Activity Against Resistant HIV Strains” (Parker Hughes Institute, priority 1998, published 2007).

Assay [1] relates to HIV-2 (Strain: CBL-20). In words: Inhibition of HIV-2 replication in PBMNC (RT activity). The class given is cell-based. The note with it: Human immunodeficiency virus 2, read-out: HIV-2 IC50 [RT]. The protocol: (P-AZT) and with AZT. The incubation and analysis methods used were as described above for Example 3.
(§1) Cellular Assays of Anti-HIV Activity and Cytotoxicity. […] Percent viral inhibition was calculated by comparing the RT activity values from the test substance-treated infected cells with RT values from untreated infected cells (i.e., virus controls).

For assay [2], the system named is AZT- and NNI-resistant HIV-1 (strain: RTMDR-1). In words: Inhibition of RTMDR-1 (HIV-MDR) replication in PBMNC (RT activity). The format is cell-based. The protocol:
as §1

Assay [3] has as its system HIV-1 A17 (Y181C mutant, NNRTI-resistant). As to the kind of experiment: p24 antigen assay, A17 strain in PBMC. The format is cell-based. The settings on record: Human immunodeficiency virus 1, PBMC. The text has this: In vitro assays of anti-HIV-1 activity.
Viruses. 20 primary clinical isolates with genotypic and/or phenotypic NRTI-resistance (isolated in the laboratory of D. Richman) and 10 clinical isolates with phenotypic stavudine (d4T) resistance (obtained through the AIDS Research and Reference Reagent Program, NIAID) were used in the current study. The HIV-1 strains HTLVIIIB (wildtype RT, NRTI-sensitive, NNRTI-sensitive), A17 (Y181 C mutant, NNRTI-resistant), A17-variant (Y181C+K103N mutant, NNRTI-resistant), and RT-MDR (M41 L, V106N, T215Y; NRTI-resistant, NNRTI-resistant) were also obtained from the AIDS Research and Reference Reagent Program, NIAID.
Antiviral susceptibility assays.

Assay [4] deals with Zidovudine-Sensitive Primary Clinical HIV-1 Isolates. As to the kind of experiment: p24 drug susceptibility assay, zidovudine-sensitive primary clinical HIV-1 isolates in PBMC. The class given is cell-based. The settings on record: Human immunodeficiency virus 1, PBMC. The protocol:
Antiviral susceptibility assays. Phenotypic drug susceptibility studies of HIV-1 isolates and strains were performed by measuring the production of the p24 gag protein in peripheral blood mononuclear cells (PBMC) from seronegative healthy volunteers in the presence of increasing concentrations of the anti-HIV agent using the quantitative Coulter HIV-1 p24 antigen ezyme immunoassay (EIA) and HIV-1 p24 Antigen Kinetic Standard (Beckman Coulter), as previously described (Uckun, 1998, Antimicrobial Agents and Chemotherapy 37(4): 835-38). Informed consent was obtained from the blood donors according to DHHS guidelines using consent forms approved by the Institutional Review Board. In brief, PBMC were cultured for 72 h in RPMI 1640 medium (Gibco) supplemented with 20% (vol/vol) heat-inactivated fetal bovine serum, 5% human interleukin-2 (Zeptometrix), 2 mM L-glutamine, 25 mM HEPES, 2 g/L NaHCO3, 100 U/ml penicillin/streptomycin (Gibco), 50 μg/ml gentamicin (Gibco), and 5 μg/ml phytohemagglutinin-P (PHA-P) (Sigma) for 24-72 hours prior to exposure to HIV at a multiplicity of infection of 0.001-0.1 during a 1-h adsorbtion period at 37±1° C. in a humidified 5-7% CO2 atmosphere. Subsequently, cells were cultured in 96-well microtiter plates (100 μl/well; 2×10^6 cells/ml, triplicate wells) in the presence of the anti-HIV agents at 6-7 different concentrations ranging from 0.0001 μM to 100 μM, and 25 μL aliquots of culture supernatants were removed from the wells on day 6 after infection for p24 EIA, as previously described (Uckun, 1998, Antimicrobial Agents and Chemotherapy, 37(4):835-38). Controls included uninfected and untreated cells (background control) and infected but untreated (virus control) cells. The p24 EIA utilizes a murine monoclonal antibody to HIV core protein used to coat microwell strips to which the antigen present in the test culture supernatant samples binds. Percent inhibition of viral replication was calculated by comparing the p24 values from the test substance-treated infected cells with p24 values from untreated infected cells (i.e., virus controls). The IC50 values were determined using the Statview statistics program (SAS Institute, Inc.). In parallel, the effects of various treatments on cell viability were also examined as previously described (Uckun, 1998, Antimicrobial Agents and Chemotherapy, 42:383-388). In brief, noninfected PBMC were treated with each compound for 5 days under identical experimental conditions. A microculture tetrazolium assay (MTA) was performed to quantitate cellular proliferation (Uckun, 1998, Antimicrobial Agents and Chemotherapy, 42:383-388).
Phenotypic drug susceptibility studies of HIV-1 isolates and strains were performed by measuring the production of the p24 gag protein in peripheral blood mononuclear cells (PBMC) from seronegative healthy volunteers in the presence of increasing concentrations of the anti-HIV agent using the quantitative Coulter HIV-1 p24 antigen enzyme immunoassay (EIA) and HIV-1 p24 Antigen Kinetic Standard (Beckman Coulter), as previously described. StatView was used in the calculation of the IC50 values from each set of triplicate wells using the linearized form of an exponential equation (lnY=lnb0+b1X; where Y=% inhibition, X=drug concentration). The inhibition constants were log10 transformed to homogenize the variances within each group. […] P-values below 0.05 were deemed significant (JMP Software, SAS).

Assay [5] has as its system NRTI-resistant recombinant HIV-1 isolates. In words: p24 assay, multi-NRTI-resistant recombinant HIV-1 clones. The format is cell-based.
The test system is the same in assay [6]. In words: RT activity assay, multi-NRTI-resistant recombinant HIV-1 clones. The format is cell-based.
Assay [7] has the same test system. As to the kind of experiment: Documented fold decreased susceptibility of recombinant HIV-1 clones. The class given is cell-based.
Assay [8] has the same test system. The settings on record: cited from earlier work.
The mark [9] stands for this setting: primary isolate RW/92/8 (V179I), Table 14.
The mark [10] stands for this setting: read-out: IC50, μM (p24), Mean ± SE, mean over 10 zidovudine-sensitive clinical isolates.
[11] abbreviates: read-out: IC50, μM (p24), isolate 92BR003 (B/B, Brazil), PBMC.
Where [12] appears, read: read-out: IC50, μM (p24), isolate 92BR025 (C/C, Brazil), PBMC.
[13] abbreviates: read-out: IC50, μM (p24), isolate 92RW008 (—/A, Rawanda), PBMC.
Setting [14] is: read-out: IC50, μM (p24), isolate 92RW016 (subtype A/A, Rawanda), PBMC.
Setting [15] is: read-out: IC50, μM (p24), isolate 93BR019 (—/BF, Brazil), PBMC.
Where [16] appears, read: read-out: IC50, μM (p24), isolate 93BR020 (F/F, Brazil), PBMC.
[17] abbreviates: read-out: IC50, μM (p24), isolate 93BR029 (F/B, Brazil), PBMC.
Setting [18] is: read-out: IC50, μM (p24), isolate 93IN101 (—/C, India), PBMC.
The mark [19] stands for this setting: read-out: IC50, μM (p24), isolate HIV-1G3 (—/G, Nigeria), PBMC.
The mark [20] stands for this setting: read-out: IC50, μM (p24), isolate HIV-1JV1083 (—/G, Nigeria), PBMC.
The mark [21] stands for this setting: multi-NRTI-resistant clones, IC50 RT.

Where two headings read alike, the source gives them in different places.

With `COC(=O)C(C)NP(=O)(OC[C@@H]1C=C[C@H](n2cc(C)c(=O)[nH]c2=O)O1)Oc1ccc(Br)cc1` (stereo partly shown) [Compound 1c, d4T-5′-[p-bromo-phenylmethoxyalaninyl phosphate]], the IC50 in assay [1] is 400 nM; in assay [2] (Human immunodeficiency virus 1, read-out: HIV-MDR IC50 [RT]), 20 nM; in assay [2] (Human immunodeficiency virus 1, read-out: IC50 against HIV-MDR), 20 nM; in assay [2] (Human immunodeficiency virus 1, read-out: RTMDR-1 IC50 [RT]), 20 nM; in assay [3], less than 1 nM; in assay [3] (read-out: IC50 A17) it was 36 ± 21 nM. The IC50 in assay [4] (setting [9]) is 0.0008 µM; in assay [4] (setting [10]), 0.002 ± 0.001 µM; in assay [4] (setting [11]), 0.0006 µM; in assay [4] (setting [12]), 0.001 µM; in assay [4] (setting [13]) it was 0.0008 µM; in assay [4] (setting [14]), 0.003 µM. For the same compound, the IC50 in assay [4] (setting [15]) stood at 0.0008 µM; in assay [4] (setting [16]), 0.007 µM; in assay [4] (setting [17]) it was 0.0008 µM; in assay [4] (setting [18]), 0.0005 µM; in assay [4] (setting [19]) it was 0.0005 µM; in assay [4] (setting [20]) it was 0.001 µM. In addition, the IC50 in assay [5] (Human immunodeficiency virus 1, read-out: IC50 (nM), Mean ± SE, Group B (n = 6) recombinant clones) was found to be 27.6 ± 7.9 nM; in assay [5] (Human immunodeficiency virus 1, read-out: IC50 (nM), median, Group B (n = 6)), 22.5 nM; in assay [5] (Human immunodeficiency virus 1, read-out: IC50 (nM), p24, recombinant clone 1617-1 (151 complex)), 19.9 nM; in assay [5] (Human immunodeficiency virus 1, read-out: IC50 (nM), p24, recombinant clone 4755-5) it was 6 nM; in assay [5] (Human immunodeficiency virus 1, read-out: IC50 (nM), p24, recombinant clone 7295-1) it was 43 nM; in assay [5] (Human immunodeficiency virus 1, read-out: IC50 (nM), p24, recombinant clone 7324-1) it was 13.7 nM. In addition, the IC50 was 25 nM in assay [5] (Human immunodeficiency virus 1, read-out: IC50 (nM), p24, recombinant clone 52252-1 in Table 18, 56252-1 in Tables 19 and 20 (K65R, 151 complex)); 57.9 nM in assay [5] (Human immunodeficiency virus 1, read-out: IC50 (nM), p24, recombinant clone printed 52534-1 in Table 18, 52534-2 in Tables 19 and 20 (69 insertion complex)); 6 to 57.9 nM in assay [5] (Human immunodeficiency virus 1, read-out: IC50 (nM), range, Group B (n = 6)); 34.3 ± 11.9 nM in assay [5] (Human immunodeficiency virus 1, read-out: mean IC50 value, recombinant clones with 151 complex or 69 insertion complex (Group 3+Group 4)); 5.8 nM in assay [6] (Human immunodeficiency virus 1, read-out: IC50 (nM), RT, recombinant clone 1617-1); 0.6 nM in assay [6] (Human immunodeficiency virus 1, read-out: IC50 (nM), RT, recombinant clone 4755-5). Also, the IC50 in assay [6] (Human immunodeficiency virus 1, read-out: IC50 (nM), RT, recombinant clone 7295-1) is 0.2 nM; in assay [6] (Human immunodeficiency virus 1, read-out: IC50 (nM), RT, recombinant clone 7324-1), 0.8 nM; in assay [6] (Human immunodeficiency virus 1, read-out: IC50 (nM), RT, recombinant clone 52534-2) it was 4.6 nM; in assay [6] (Human immunodeficiency virus 1, read-out: IC50 (nM), RT, recombinant clone 56252-1) it was 6.3 nM; in assay [6] (Human immunodeficiency virus 1, read-out: mean IC50, RT, mean over 6 multi-NRTI-resistant clones) it was 3.1 ± 1.2 nM. In assay [6] (setting [21]), the “logs more potent than lamivudine” value is greater than 3.4 logs. Further, the “logs more potent than zidovudine(AZT)” value in assay [6] (setting [21]) is listed as greater than 1.4 logs.

In the case of `Cc1cn([C@H]2C=C[C@@H](CO)O2)c(=O)[nH]c1=O` [d4T, 2′,3′-didehydro-2′,3′-dideoxythymidine], the IC50 in assay [4] (setting [10]) came to 0.24 ± 0.07 µM; in assay [4] (setting [11]) it was 0.1 µM; in assay [4] (setting [12]), 0.4 µM; in assay [4] (setting [13]), 0.2 µM; in assay [4] (setting [14]), 0.1 µM; in assay [4] (setting [15]) it was 0.2 µM. Also, the IC50 was 0.2 µM in assay [4] (setting [16]); 0.8 µM in assay [4] (setting [17]); 0.1 µM in assay [4] (setting [18]); 0.1 µM in assay [4] (setting [19]); 0.2 µM in assay [4] (setting [20]); 0.1 to 0.8 µM in assay [4] (read-out: IC50 range, range over 10 zidovudine-sensitive clinical isolates). Also, the IC90 was 6380 ± 3890 nM in assay [4] (read-out: IC90 mean ±SE) and 1000 to 40900 nM in assay [4] (read-out: IC90 range). For the same compound, the “mean reduction in susceptibility” value in assay [7] (mean over 6 recombinant clones) is listed as 8.1 fold. In addition, the “median reduction in susceptibility” value in assay [7] (median over 6 recombinant clones) was determined as 6.5 fold. Further, the Fold decreased susceptibility in assay [8] (recombinant clone 1617-1) was 11 fold; in assay [8] (recombinant clone 4755-5), 3.9 fold; in assay [8] (recombinant clone 7295-1), 1.9 fold; in assay [8] (recombinant clone 7324-1), 2.6 fold; in assay [8] (recombinant clone 52534-2), 9 fold; in assay [8] (recombinant clone 56252-1), 20 fold.

Take `Cc1ccnc2c1NC(=O)c1cccnc1N2C1CC1` [nevirapine]: the IC50 in assay [3] is 47000 ± 7000 nM; in assay [4] (setting [9]), 0.1 µM.
